Conditions: crude, prior to HSCCC; ethyl acetate, well-sealed container, -20° C., over four months
Description: Chromatograms were monitored by radioactivity. In FIG. 2A the sample was freshly prepared while in FIG. 2B the sample was stored for 4.2 months in ethyl acetate at -20° C. […] Other conditions were the same as in FIGS. 1A and 1B.

SMILES: O=C(CBr)N[C@@H](Cc1cc(I)c(Oc2ccc(O)c(I)c2)c(I)c1)C(=O)O [BrAc[^125 I]T3, ^125 I-labeled N-bromoacetyl-3,3',5-triiodo-L-thyronine]
- decomposition on storage: partial decomposition

— patent US5169984A, “Synthesis and characterization of N-bromoacetyl-3,3'5-triiodo-L-thyronine using high speed countercurrent chromatography” (The United States of America as represented by the …, priority 1990, dated 1992)
